Activity calls are given as the source filed them. The rule behind the calls is not given here.
Test system: HT-29
Assay: Antiproliferative activity against human HT-29 cells at 100 uM up to 15 hrs by non-radioactive cell proliferation assay
Type: functional, cell-based

SMILES | Activity
CC[C@H](C)[C@@H]1OC(=O)C(C)(C)[C@@H](O)[C@@H](Cc2ccccc2)OC(=O)[C@H](C(C)C)OC(=O)[C@@H](NC(=O)c2cccc(NC=O)c2O)[C@H](C)OC1=O | inactive
CC[C@H](C)[C@@H]1OC(=O)C(C)(C)[C@@H](O)[C@@H](Cc2ccccc2)OC(=O)[C@H](C(C)C)OC(=O)[C@@H](NC(=O)c2cccc(N)c2O)[C@H](C)OC1=O | inactive
CC(C)[C@@H]1OC(=O)[C@@H](NC(=O)c2cccc(N)c2O)[C@H](C)OC(=O)[C@H](C(C)C)OC(=O)C(C)(C)[C@@H](O)[C@@H](Cc2ccccc2)OC1=O | inactive
CC(C)[C@@H]1OC(=O)[C@@H](NC(=O)c2cccc(NC=O)c2O)[C@H](C)OC(=O)[C@H](C(C)C)OC(=O)C(C)(C)[C@@H](O)[C@@H](Cc2ccccc2)OC1=O | inactive
CC[C@H](C)[C@@H]1OC(=O)C(C)(C)[C@@H](O)[C@@H](Cc2ccccc2)OC(=O)[C@H](C)OC(=O)[C@@H](NC(=O)c2cccc(NC=O)c2O)[C@H](C)OC1=O | inactive
CC[C@H](C)[C@@H]1OC(=O)C(C)(C)[C@@H](O)[C@@H](Cc2ccccc2)OC(=O)[C@H](C)OC(=O)[C@@H](NC(=O)c2cccc(N)c2O)[C@H](C)OC1=O | inactive
